Data: ChEMBL document CHEMBL5465560, “Selectivity Literature for EUbOPEN Chemogenomic Library” (2024)
Values belong to the compound of their own block, whether it stands above or below them.

Tests used:
[1] = biological target: Melatonin receptor type 1A (Homo sapiens) (UniProt P48039); experiment: Selectivity interaction (Eurofins CEREP Diversity Profile (receptors and ion channels)) EUB0000279b MTNR1A; details: at 10 µM
[2] = biological target: Protein arginine N-methyltransferase 6 (Homo sapiens, UniProt Q96LA8); experiment: Selectivity interaction (Methyltransferase screen (Scintillation proximity assays)) EUB0000255b PRMT6
[3] = biological target: T1, 3-phosphoinositide-dependent protein kinase 1 (Homo sapiens) (UniProt O15530); experiment: Selectivity interaction (KinomeScan (DiscoverX)) EUB0000618a PDPK1; details: at 10 µM
T1 sequence (whole entry): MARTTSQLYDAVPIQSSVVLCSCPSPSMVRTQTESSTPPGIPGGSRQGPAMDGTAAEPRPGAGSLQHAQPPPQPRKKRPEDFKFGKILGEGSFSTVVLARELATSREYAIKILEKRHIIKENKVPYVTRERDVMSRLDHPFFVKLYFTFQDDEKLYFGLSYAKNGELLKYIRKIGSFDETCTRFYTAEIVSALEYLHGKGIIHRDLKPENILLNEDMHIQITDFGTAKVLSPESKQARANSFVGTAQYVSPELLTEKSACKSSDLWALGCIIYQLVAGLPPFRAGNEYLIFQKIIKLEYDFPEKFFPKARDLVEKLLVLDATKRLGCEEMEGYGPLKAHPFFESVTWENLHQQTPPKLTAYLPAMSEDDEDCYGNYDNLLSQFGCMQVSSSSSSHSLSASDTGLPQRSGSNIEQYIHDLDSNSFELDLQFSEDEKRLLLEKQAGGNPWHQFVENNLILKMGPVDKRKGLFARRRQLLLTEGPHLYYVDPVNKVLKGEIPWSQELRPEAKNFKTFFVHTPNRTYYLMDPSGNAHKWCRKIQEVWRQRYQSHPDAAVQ

[4] = biological target: T2, Serine/threonine-protein kinase Nek3 (Homo sapiens) (UniProt P51956); experiment: Selectivity interaction (KinomeScan (DiscoverX)) EUB0000607a NEK3; details: at 10 µM
T2 sequence (whole entry): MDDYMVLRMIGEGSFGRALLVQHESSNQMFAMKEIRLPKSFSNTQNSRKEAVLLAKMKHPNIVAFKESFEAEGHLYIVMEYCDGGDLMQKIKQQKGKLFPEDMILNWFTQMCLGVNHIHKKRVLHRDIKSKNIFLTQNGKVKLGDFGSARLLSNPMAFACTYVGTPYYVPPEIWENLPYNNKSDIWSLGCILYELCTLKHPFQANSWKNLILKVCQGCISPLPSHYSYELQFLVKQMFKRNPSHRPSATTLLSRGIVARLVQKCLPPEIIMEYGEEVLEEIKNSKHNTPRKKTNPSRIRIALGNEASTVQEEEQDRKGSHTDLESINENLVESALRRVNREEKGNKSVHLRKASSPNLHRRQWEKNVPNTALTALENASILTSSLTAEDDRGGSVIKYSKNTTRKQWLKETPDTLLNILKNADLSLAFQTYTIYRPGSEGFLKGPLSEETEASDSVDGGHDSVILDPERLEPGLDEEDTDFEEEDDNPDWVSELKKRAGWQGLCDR

[5] = biological target: T3, Serine/threonine-protein kinase ICK (Homo sapiens) (UniProt Q9UPZ9); experiment: Selectivity interaction (KinomeScan (DiscoverX)) EUB0000045b ICK
T3 sequence (whole entry): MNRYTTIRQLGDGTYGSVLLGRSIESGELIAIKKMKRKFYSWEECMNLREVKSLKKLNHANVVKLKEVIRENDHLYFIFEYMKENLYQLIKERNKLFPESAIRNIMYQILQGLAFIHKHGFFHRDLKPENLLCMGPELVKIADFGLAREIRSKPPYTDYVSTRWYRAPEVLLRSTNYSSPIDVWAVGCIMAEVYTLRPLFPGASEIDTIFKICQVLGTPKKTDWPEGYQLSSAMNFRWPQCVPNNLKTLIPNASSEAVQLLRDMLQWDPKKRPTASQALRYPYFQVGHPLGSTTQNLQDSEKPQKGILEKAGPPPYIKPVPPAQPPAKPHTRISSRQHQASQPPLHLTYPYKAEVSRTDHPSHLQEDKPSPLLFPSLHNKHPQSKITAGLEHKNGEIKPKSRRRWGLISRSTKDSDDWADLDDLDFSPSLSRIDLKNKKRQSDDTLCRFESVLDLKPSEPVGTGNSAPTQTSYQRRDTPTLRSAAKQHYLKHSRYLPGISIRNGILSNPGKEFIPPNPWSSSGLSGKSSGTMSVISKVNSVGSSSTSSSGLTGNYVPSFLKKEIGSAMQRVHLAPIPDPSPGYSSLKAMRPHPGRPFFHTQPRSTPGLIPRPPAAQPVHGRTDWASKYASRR

[6] = biological target: T4, Aurora kinase A (Homo sapiens) (UniProt O14965); experiment: Selectivity interaction (ActivX KiNativ screen (kinase selectivity in THP-1 cell lysates)) EUB0000639a STK6; type: subcellular; details: lysate, at 5 µM
T4 sequence (whole entry): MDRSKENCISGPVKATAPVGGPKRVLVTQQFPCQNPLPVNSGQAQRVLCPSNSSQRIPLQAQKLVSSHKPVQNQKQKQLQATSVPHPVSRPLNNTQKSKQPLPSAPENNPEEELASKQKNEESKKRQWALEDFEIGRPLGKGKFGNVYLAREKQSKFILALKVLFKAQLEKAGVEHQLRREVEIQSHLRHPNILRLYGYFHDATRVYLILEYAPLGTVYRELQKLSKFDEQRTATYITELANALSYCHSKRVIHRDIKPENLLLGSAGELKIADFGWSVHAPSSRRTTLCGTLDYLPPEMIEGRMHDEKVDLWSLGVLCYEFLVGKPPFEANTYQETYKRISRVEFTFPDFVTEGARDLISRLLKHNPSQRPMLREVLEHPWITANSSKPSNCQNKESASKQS

[7] = biological target: Chromatin remodeling regulator CECR2 (Homo sapiens, UniProt Q9BXF3); experiment: Selectivity interaction (Bromodomain panel (DSF asssay)) EUB0000270b CECR2
[8] = biological target: Mitogen-activated protein kinase 4 (Homo sapiens) (UniProt P31152); experiment: Selectivity interaction (KinomeScan (DiscoverX)) EUB0000229b MAPK4; details: at 10 µM
[9] = biological target: cAMP-dependent protein kinase catalytic subunit beta (Homo sapiens) (UniProt P22694); experiment: Selectivity interaction (KinomeScan (DiscoverX)) EUB0000229b PRKACB; details: at 10 µM
[10] = biological target: 5'-AMP-activated protein kinase catalytic subunit alpha-1 (Homo sapiens, UniProt Q13131); experiment: Selectivity interaction (KinomeScan (DiscoverX)) EUB0000666a PRKAA1; details: at 10 µM
[11] = biological target: Serine/threonine-protein kinase 35 (Homo sapiens) (UniProt Q8TDR2); experiment: Selectivity interaction (KinomeScan (DiscoverX)) EUB0000666a STK35; details: at 10 µM
[12] = biological target: Serine/threonine-protein kinase 32C (Homo sapiens) (UniProt Q86UX6); experiment: Selectivity interaction (KinomeScan (DiscoverX)) EUB0000092b STK32C; details: at 10 µM
[13] = biological target: Mitogen-activated protein kinase kinase kinase 21 (Homo sapiens) (UniProt Q5TCX8); experiment: Selectivity interaction (LanthaScreen Eu Kinase Binding Assay) EUB0001632a MAP3K21; details: at 10 µM
Chain of Mitogen-activated protein kinase kinase kinase 21 (Homo sapiens) (Q5TCX8 whole entry): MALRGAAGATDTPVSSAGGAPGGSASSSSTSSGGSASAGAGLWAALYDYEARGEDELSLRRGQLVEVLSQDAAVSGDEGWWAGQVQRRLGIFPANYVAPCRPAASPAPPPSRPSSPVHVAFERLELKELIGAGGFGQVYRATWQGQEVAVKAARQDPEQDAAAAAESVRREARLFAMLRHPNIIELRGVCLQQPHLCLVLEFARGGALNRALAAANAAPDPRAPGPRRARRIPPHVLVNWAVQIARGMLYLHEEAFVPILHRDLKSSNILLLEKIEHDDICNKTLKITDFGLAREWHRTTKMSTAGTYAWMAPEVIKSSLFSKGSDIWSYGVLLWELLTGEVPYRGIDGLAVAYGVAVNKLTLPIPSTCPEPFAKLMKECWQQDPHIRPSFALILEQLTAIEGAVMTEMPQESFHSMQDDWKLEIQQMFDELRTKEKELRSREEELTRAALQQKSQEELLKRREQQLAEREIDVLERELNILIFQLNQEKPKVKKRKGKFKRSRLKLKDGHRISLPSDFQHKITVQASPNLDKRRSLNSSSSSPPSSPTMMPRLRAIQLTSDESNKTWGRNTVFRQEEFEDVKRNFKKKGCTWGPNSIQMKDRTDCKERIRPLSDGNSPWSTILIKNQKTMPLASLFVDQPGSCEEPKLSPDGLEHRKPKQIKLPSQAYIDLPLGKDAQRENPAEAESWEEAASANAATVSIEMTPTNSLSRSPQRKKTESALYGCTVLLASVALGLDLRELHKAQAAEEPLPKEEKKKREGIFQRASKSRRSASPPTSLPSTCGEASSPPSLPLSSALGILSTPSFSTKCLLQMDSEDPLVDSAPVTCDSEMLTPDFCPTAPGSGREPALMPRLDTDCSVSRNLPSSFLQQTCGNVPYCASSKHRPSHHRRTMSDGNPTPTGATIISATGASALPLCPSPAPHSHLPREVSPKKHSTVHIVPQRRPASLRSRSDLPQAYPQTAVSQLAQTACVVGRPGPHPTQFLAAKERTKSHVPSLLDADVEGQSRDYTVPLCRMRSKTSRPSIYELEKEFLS

Chain of Protein arginine N-methyltransferase 6 (Q96LA8 whole entry, looked up): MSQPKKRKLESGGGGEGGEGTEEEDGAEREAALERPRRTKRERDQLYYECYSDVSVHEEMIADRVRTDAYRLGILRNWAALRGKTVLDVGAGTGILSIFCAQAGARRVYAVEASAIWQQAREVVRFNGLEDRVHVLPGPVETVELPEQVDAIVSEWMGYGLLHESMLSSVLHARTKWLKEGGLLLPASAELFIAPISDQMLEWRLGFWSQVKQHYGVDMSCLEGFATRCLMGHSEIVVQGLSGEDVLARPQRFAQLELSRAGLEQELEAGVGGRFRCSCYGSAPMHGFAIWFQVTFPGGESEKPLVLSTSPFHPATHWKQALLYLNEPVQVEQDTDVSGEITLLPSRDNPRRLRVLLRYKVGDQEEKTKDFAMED
Chain of Melatonin receptor type 1A (Homo sapiens) (P48039 whole entry): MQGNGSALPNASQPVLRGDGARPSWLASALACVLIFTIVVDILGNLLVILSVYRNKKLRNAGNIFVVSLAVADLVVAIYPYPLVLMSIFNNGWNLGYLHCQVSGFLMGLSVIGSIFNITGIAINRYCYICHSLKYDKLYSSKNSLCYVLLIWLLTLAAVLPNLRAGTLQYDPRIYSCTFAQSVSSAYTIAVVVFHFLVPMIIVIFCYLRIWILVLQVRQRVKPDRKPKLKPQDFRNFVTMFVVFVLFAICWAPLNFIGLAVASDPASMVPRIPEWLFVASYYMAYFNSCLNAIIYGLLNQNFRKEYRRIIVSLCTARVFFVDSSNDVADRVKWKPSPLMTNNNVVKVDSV
Chain of 5'-AMP-activated protein kinase catalytic subunit alpha-1 (Q13131 whole entry, looked up): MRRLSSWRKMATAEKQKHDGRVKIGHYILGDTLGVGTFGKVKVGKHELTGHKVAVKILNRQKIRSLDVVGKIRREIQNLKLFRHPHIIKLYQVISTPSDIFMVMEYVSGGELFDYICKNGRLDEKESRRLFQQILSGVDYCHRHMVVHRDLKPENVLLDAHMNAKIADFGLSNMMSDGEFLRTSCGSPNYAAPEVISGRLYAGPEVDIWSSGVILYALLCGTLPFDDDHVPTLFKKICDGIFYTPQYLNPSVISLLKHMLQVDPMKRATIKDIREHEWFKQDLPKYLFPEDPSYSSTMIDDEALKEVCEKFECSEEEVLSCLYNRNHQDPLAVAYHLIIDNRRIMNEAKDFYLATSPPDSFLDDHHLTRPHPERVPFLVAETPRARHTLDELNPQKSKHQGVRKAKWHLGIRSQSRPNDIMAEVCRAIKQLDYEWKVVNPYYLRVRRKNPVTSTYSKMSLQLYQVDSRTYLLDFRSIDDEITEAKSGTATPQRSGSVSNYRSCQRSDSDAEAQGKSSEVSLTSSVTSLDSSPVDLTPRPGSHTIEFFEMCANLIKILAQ
Chain of Serine/threonine-protein kinase 32C (Homo sapiens) (Q86UX6 whole entry): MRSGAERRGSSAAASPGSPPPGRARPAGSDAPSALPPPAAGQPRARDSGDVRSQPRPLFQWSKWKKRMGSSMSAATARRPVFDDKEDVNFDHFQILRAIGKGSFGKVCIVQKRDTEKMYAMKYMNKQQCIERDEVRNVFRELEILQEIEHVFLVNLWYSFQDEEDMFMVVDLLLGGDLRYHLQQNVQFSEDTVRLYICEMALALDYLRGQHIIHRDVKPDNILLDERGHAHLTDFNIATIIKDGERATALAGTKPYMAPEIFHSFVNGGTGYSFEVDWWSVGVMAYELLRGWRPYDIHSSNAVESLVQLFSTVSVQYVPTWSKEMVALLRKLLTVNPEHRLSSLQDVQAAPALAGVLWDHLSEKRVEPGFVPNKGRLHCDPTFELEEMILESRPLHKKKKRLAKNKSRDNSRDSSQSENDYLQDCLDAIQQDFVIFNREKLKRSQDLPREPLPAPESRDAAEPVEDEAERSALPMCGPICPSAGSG
Chain of Chromatin remodeling regulator CECR2 (Q9BXF3 whole entry, looked up): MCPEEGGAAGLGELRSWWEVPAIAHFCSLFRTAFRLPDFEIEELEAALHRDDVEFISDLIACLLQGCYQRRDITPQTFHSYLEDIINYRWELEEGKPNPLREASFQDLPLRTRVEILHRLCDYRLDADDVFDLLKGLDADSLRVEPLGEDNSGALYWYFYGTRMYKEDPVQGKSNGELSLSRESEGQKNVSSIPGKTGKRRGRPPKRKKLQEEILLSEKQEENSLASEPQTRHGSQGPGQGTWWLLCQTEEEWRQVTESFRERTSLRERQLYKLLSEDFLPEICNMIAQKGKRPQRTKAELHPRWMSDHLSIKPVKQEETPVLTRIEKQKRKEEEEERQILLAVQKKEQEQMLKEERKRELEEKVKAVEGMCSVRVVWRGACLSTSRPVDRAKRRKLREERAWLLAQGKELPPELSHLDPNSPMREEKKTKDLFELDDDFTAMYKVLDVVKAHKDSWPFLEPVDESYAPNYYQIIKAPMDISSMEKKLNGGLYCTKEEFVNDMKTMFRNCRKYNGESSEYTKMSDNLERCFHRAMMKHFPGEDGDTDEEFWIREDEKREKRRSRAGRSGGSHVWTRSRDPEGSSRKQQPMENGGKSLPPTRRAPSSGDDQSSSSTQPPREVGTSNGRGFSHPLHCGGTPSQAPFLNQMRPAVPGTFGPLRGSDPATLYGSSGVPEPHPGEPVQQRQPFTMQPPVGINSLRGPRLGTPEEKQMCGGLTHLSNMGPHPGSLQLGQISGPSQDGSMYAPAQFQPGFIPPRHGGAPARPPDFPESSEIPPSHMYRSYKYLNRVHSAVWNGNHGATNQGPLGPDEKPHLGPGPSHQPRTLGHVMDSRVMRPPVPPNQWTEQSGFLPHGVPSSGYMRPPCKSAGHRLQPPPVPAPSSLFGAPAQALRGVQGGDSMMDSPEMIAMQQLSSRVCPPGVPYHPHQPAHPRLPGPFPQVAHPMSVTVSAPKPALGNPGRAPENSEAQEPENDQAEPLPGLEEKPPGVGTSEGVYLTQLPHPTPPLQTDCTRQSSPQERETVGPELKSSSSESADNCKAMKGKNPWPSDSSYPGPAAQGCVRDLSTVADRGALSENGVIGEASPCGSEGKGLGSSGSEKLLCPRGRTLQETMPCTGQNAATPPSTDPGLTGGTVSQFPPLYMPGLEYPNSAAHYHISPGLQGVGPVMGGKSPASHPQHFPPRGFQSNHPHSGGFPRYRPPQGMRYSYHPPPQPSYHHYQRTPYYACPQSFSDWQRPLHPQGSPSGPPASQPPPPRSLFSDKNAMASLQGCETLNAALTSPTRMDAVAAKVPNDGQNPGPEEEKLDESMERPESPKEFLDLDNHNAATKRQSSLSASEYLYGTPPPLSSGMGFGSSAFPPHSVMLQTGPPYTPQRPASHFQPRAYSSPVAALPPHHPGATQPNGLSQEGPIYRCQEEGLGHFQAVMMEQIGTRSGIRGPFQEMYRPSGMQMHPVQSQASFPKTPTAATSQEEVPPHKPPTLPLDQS
Chain of Serine/threonine-protein kinase 35 (Homo sapiens) (Q8TDR2 whole entry): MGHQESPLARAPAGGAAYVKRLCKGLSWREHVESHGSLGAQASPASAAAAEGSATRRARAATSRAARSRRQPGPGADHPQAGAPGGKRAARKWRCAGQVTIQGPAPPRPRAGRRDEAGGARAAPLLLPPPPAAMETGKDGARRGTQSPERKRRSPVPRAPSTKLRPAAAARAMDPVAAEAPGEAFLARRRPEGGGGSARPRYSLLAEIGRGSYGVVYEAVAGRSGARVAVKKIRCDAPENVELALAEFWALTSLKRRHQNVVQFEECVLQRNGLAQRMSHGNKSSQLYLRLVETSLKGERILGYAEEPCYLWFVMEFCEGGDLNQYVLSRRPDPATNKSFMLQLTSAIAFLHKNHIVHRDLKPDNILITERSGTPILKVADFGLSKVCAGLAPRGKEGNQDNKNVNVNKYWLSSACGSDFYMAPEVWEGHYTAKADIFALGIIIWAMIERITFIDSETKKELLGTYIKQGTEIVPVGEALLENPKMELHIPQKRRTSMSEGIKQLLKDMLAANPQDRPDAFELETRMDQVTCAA

% of control [1]: 46%
SMILES: CC(=O)c1cc(-c2ccccc2OCC2CC2)c2ncccn12

SMILES: COCCN1CCC(c2cc(CN(C)C(=O)c3cccc(Oc4ccccc4)c3)ccn2)CC1
% activity ([2]; at 1 µM): 17% | % activity ([2]; at 10 µM): > 90%

SMILES: O[C@H]1CC[C@H](Nc2ncc3nc(Nc4c(F)cc(F)cc4F)n([C@H]4CCOC4)c3n2)CC1
% of control [3]: 100%

SMILES: CNC(=O)Nc1ccc(-c2nc(N3CC4CCC(C3)O4)c3cnn(C4CCC5(CC4)OCCO5)c3n2)cc1
% of control [4]: 100%

SMILES: C=CC(=O)Nc1cc(-n2c(=O)ccc3cnc4ccc(-c5ccc(NS(C)(=O)=O)cc5)cc4c32)ccc1C
% of control ([5]; at 1 µM): 100% | % of control ([5]; at 10 µM): 100%

% of inhibition [6]: 64.4%
SMILES: CC[C@@H]1[C@H](F)C(=O)N[C@@H]1COc1nccc2cc(C(N)=O)c(OC)cc12 [ZIMLOVISERTIB]

dTM [7]: -0.68 K
SMILES: Cc1cc(CN)cc(C)c1-c1ncn(C)c1-c1cncn1C

SMILES: COc1cc(N(C)c2ccnc3ccc(C(F)(F)F)cc23)cc(OC)c1OC
% binding [8]: 93% | % binding [9]: 75%

SMILES: O=C(NOC[C@H](O)CO)c1ccc(F)c(F)c1Nc1ccc(I)cc1F
% of control [10]: 100% | % of control [11]: 83%

SMILES: CCC(=O)N1CCN(c2ccc(-n3c(=O)ccc4cnc5ccc(-c6cnc7ccccc7c6)cc5c43)cc2C(F)(F)F)CC1
% of control [12]: 100%

% of inhibition [13]: -59.8%
SMILES: Cn1cc(-n2cnc3c(NCc4nc5cc(Cl)c(Cl)cc5[nH]4)nc(N4CCOCC4)nc32)cn1
